The term EC50 denotes the concentration that produces a half-maximal response. A higher EC50 goes with weaker potency.

This assay addresses T1, human FSH receptor (Homo sapiens, UniProt P23945).
T1 construct: expressed in transfected cells
T1 sequence (P23945 18-695): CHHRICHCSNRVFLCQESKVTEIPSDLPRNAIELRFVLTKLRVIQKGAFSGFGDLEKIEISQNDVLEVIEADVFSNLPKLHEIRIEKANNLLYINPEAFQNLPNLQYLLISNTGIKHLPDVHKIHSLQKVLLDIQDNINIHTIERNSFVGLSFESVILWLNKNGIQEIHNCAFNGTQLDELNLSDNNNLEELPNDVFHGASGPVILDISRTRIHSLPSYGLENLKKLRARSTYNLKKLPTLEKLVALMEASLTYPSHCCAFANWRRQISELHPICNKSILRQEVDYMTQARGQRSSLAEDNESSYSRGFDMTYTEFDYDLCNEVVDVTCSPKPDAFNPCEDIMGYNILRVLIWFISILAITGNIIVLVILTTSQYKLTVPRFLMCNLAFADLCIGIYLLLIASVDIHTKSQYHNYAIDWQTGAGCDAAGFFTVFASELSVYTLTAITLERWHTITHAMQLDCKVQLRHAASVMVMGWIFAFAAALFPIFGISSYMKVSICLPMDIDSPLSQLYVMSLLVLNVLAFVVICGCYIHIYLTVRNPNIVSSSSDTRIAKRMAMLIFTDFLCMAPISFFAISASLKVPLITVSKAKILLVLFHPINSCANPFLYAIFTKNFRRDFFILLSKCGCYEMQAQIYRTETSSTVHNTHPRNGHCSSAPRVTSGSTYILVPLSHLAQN
Kind of assay: hFSHRago (CHO luc): agonistic activity at the human FSH receptor expressed in CHO cells, CRE-luciferase reporter. The settings on record: CHO cells stably transfected with human FSH receptor and CRE/luciferase reporter; 4 hours of incubation. The format is cell-based. A general note: In a reporter assay the amount or activity of a reporter protein is the signal.
In turn, `COc1cc2c(cc1Br)-c1c(-c3cccs3)cc(C(=O)N(C)C(C)(C)C)n1CC2` [Example 85a, 9-Bromo-8-methoxy-1-thiophen-2-yl-5,6-dihydro-pyrrolo[2,1--α]isoquinoline-3-carboxylic acid tert-butyl-methyl-amide] yielded an EC50 of 11.3 nM. Consider `CC#Cc1cc2c(cc1OC)CCn1c(C(=O)N(C)C(C)(C)C)cc(-c3cccs3)c1-2` [Example 85b, 8-Methoxy-9-prop-1-ynyl-1-thiophen-2-yl-5,6-dihydro-pyrrolo[2,1--α]isoquinoline-3-carboxylic acid tert-butyl-methyl-amide], for which the EC50 was 2.7 nM. Regarding `COc1cc2c(cc1C(=O)N1CCOCC1)-c1c(-c3cccs3)cc(C(=O)N(C)C(C)(C)C)n1CC2` [Example 86], the EC50 came out at 69.4 nM.

As for `COc1cc2c(cc1C(=O)NCCO)-c1c(-c3cccs3)cc(C(=O)N(C)C(C)(C)C)n1CC2` [Example 87, 8-Methoxy-1-thiophen-2-yl-5,6,6a,10a-tetrahydro-pyrrolo[2,1-α]isoquinoline-3,9-dicarboxylic acid 3-(tert-butyl-methyl-amide) 9-[(2-hydroxy-ethyl)-amide]], the midpoint of the response, the EC50, lay at 23.9 nM. Under `CN(C(=O)c1cc(-c2cccs2)c2n1CCc1ccc(N3CCCC3=O)cc1-2)C(C)(C)C` [Example 88, 9-(2-Oxo-pyrrolidin-1-yl)-1-thiophen-2-yl-5,6-dihydro-pyrrolo[2,1-α]isoquinoline-3-carboxylic acid tert-butyl-methyl-amide] stands 310 nM; under `CN(C(=O)c1cc(-c2cccs2)c2n1CCc1ccc(N3CCOC3=O)cc1-2)C(C)(C)C` [Example 89, 9-(2-Oxo-oxazolidin-3-yl)-1-thiophen-2-yl-5,6-dihydro-pyrrolo[2,1-α]isoquinoline-3-carboxylic acid tert-butyl-methyl-amide], 245 nM.

Take `CN(C(=O)c1cc(-c2cccs2)c2n1CCc1ccc(N3CCNC3=O)cc1-2)C(C)(C)C` [Example 90, 9-(2-Oxo-imidazolidin-1-yl)-1-thiophen-2-yl-5,6-dihydro-pyrrolo[2,1-α]isoquinoline-3-carboxylic acid tert-butyl-methyl-amide]: the midpoint of the response, the EC50, lay at 218 nM. Regarding `COc1cc2c(cc1C=O)-c1c(-c3cccs3)cc(C(=O)N(C)C(C)(C)C)n1CC2` [Example 91a, 9-Formyl-8-methoxy-1-thiophen-2-yl-5,6-dihydro-pyrrolo[2,1-α]isoquinoline-3-carboxylic acid tert-butyl-methyl-amide], the EC50 turned out to be 6 nM. In turn, `COc1cc2c(cc1CCCO)-c1c(-c3cccs3)cc(C(=O)N(C)C(C)(C)C)n1CC2` [Example 91d, 9-(3-hydroxy-propyl)-8-methoxy-1-thiophen-2-yl-5,6-dihydro-pyrrolo[2,1-α]iso-quinoline-3-carboxylic acid tert-butyl-methyl-amide] showed an EC50 of 0.4 nM. `COc1cc2c(cc1C=C(F)F)-c1c(-c3cccs3)cc(C(=O)N(C)C(C)(C)C)n1CC2` [Example 93] had an EC50 of 3 nM.

In turn, `COc1cc2c(cc1[N+](=O)[O-])-c1c(-c3cccs3)cc(C(=O)N(C)C(C)(C)C)n1CC2` [Example 94, 8-Methoxy-9-nitro-1-thiophen-2-yl-5,6-dihydro-pyrrolo[2,1-α]isoquinoline-3-carboxylic acid tert-butyl-methyl-amide] had a concentration for a half-maximal effect (EC50) of 3 nM. The molecule `COc1cc2c(cc1N)-c1c(-c3cccs3)cc(C(=O)N(C)C(C)(C)C)n1CC2` [Example 95, 9-Amino-8-methoxy-1-thiophen-2-yl-5,6-dihydro-pyrrolo[2,1-α]isoquinoline-3-carboxylic acid tert-butyl-methyl-amide] came in with a 50% effective concentration (EC50) of 44.8 nM.

Regarding `COc1cc2c(cc1NC(=O)CN(C)C)-c1c(-c3cccs3)cc(C(=O)N(C)C(C)(C)C)n1CC2` [Example 96, 9-(2-Dimethylamino-acetylamino)-8-methoxy-1-thiophen-2-yl-5,6,6 a,10a-tetrahydro-pyrrolo[2,1-α]isoquinoline-3-carboxylic acid tert-butyl-methyl-amide], a half-maximal effect (EC50) was put at 2.8 nM. For the molecule `COc1cc2c(cc1NC(=O)CN1CCC1)-c1c(-c3cccs3)cc(C(=O)N(C)C(C)(C)C)n1CC2` [Example 97, 9-(2-Azetidin-1-yl-acetylamino)-8-methoxy-1-thiophen-2-yl-5,6-dihydro-pyrrolo[2,1-α]isoquinoline-3-carboxylic acid tert-butyl-methyl-amide], a half-maximal response (EC50) required 4 nM. In the case of `COCC(=O)Nc1cc2c(cc1OC)CCn1c(C(=O)N(C)C(C)(C)C)cc(-c3cccs3)c1-2` [Example 98, 8-Methoxy-9-(2-methoxy-acetylamino)-1-thiophen-2-yl-5,6-dihydro-pyrrolo[2,1-α]isoquinoline-3-carboxylic acid tert-butyl-methyl-amide], the EC50 is 1.4 nM. `CCOC(=O)Nc1cc2c(cc1OC)CCn1c(C(=O)N3CCCC3(C)C)cc(-c3cccs3)c1-2` [Example 99, [3-(2,2-Dimethyl-pyrrolidine-1-carbonyl)-8-methoxy-1-thiophen-2-yl-5,6-dihydro-pyrrolo[2,1-α]isoquinolin-9-yl]-carbamic acid ethyl ester] displayed a half-maximal effective concentration (EC50) of 22 nM. Regarding `COc1cc2c(cc1NS(C)(=O)=O)-c1c(-c3cccs3)cc(C(=O)N3CCCC3(C)C)n1CC2` [Example 100, N-[3-(2,2-Dimethyl-pyrrolidine-1-carbonyl)-8-methoxy-1-thiophen-2-yl-5,6-dihydro-pyrrolo[2,1-α]isoquinolin-9-yl]-methanesulfonamide], the half-maximal effective concentration (EC50) was found to be 1 nM. `COc1cc2c(cc1NC(=O)CN1CCOCC1)-c1c(-c3cccs3)cc(C(=O)N3CCCC3(C)C)n1CC2` [Example 101, N-[3-(2,2-Dimethyl-pyrrolidine-1-carbonyl)-8-methoxy-1-thiophen-2-yl-5,6-dihydro-pyrrolo[2,1-α]isoquinolin-9-yl]-2-morpholin-4-yl-acetamide] displayed an EC50 of 2 nM. Take `CN(C(=O)c1cc(-c2cccs2)c2n1CCc1ccc(NS(=O)(=O)N(C)C)cc1-2)C(C)(C)C` [Example 103, 9-Dimethylaminosulfonylamino-1-thiophen-2-yl-5,6-dihydro-pyrrolo[2,1-α]isoquinoline-3-carboxylic acid tert-butyl-methyl-amide]: the EC50 was determined as 756 nM.

In turn, `COc1cc2c(cc1OC)-c1c(-c3cccs3)cc(C(=O)N3CCCN(C(=O)C4(C)CCC4)CC3)n1CC2` [Example 104, (8,9-Dimethoxy-1-thiophen-2-yl-5,6-dihydro-pyrrolo[2,1-α]isoquinolin-3-yl)-[4-(1-methyl-cyclobutanecarbonyl)-[1,4]diazepan-1-yl]-methanone] came in with an EC50 of 3 nM. In turn, `COc1cc2c(cc1OC)-c1c(-c3cccs3)cc(C(=O)N3CCC[C@H](NC(=O)C4CCC4)C3)n1CC2` [Example 105, Cyclobutanecarboxylic acid [(S)-1-(8,9-dimethoxy-1-thiophen-2-yl-5,6-dihydro-pyrrolo[2,1-α]isoquinoline-3-carbonyl)-piperidin-3-yl]-amide] gave an EC50 of 1730 nM. `COc1cc2c(cc1OC)-c1c(-c3cccs3)cc(C(=O)N3CC[C@@H](NC(=O)N(C)C)C3)n1CC2` [Example 106, 3-[(R)-1-(8,9-Dimethoxy-1-thiophen-2-yl-5,6-dihydro-pyrrolo[2,1-α]isoquinoline-3-carbonyl)-pyrrolidin-3-yl]-1,1-dimethyl-urea] returned a concentration for a half-maximal effect (EC50) of 755 nM. Molecule `COc1cc2c(cc1OC)-c1c(-c3cccs3)cc(C(=O)N3CCC[C@@H](N(C)C(C)=O)C3)n1CC2` [Example 107, N-[(R)-1-(8,9-Dimethoxy-1-thiophen-2-yl-5,6-dihydro-pyrrolo[2,1-α]isoquinoline-3-carbonyl)-piperidin-3-yl]-N-methyl-acetamide] gave an EC50 of 30.9 nM. Molecule `COc1cc2c(cc1OC)-c1c(Br)cc(C(=O)O)n1CC2` [Example 108b] yielded an EC50 of 99.2 nM. Turning to `COc1cc2c(cc1OC)-c1c(Br)cc(C(=O)N3CCCN(C(=O)C4CCC4)CC3)n1CC2` [Example 108c], the EC50 was 100 nM. For `C#Cc1cc(C(=O)N2CCCN(C(=O)c3ccccc3)CC2)n2c1-c1cc(OC)c(OC)cc1CC2` [Example 109, (4-Benzoyl-[1,4]diazepan-1-yl)-(1-ethynyl-8,9-dimethoxy-5,6-dihydro-pyrrolo[2,1-α]isoquinolin-3-yl)-methanone], a half-maximal response (EC50) required 76.2 nM.

Turning to `COc1cc2c(cc1OC)-c1c(C3=CCCCC3)cc(C(=O)N(C)C(C)(C)C)n1CC2` [Example 110, 1-Cyclohex-1-enyl-8,9-dimethoxy-5,6-dihydro-pyrrolo[2,1-α]isoquinoline-3-carboxylic acid tert-butyl-methyl-amide], the response was half-maximal at 76.5 nM (EC50).

For `COc1cc2c(cc1OC)-c1c(-c3cccs3)cc(C(=O)N3CCCN(C(=O)C4CCC4)CC3)n1CC2` [Example 111a, (4-Cyclobutanecarbonyl-[1,4]diazepan-1-yl)-(8,9-dimethoxy-1-thiophen-2-yl-5,6-dihydro-pyrrolo[2,1-α]isoquinolin-3-yl)-methanone], it took 2.9 nM to reach a half-maximal effect (EC50).

On to `COc1cc2ccn3c(C(=O)N4CCCN(C(=O)C5CCC5)CC4)cc(-c4cccs4)c3c2cc1OC` [Example 111b, (4-Cyclobutanecarbonyl-[1,4]diazepan-1-yl)-(8,9-dimethoxy-1-thiophen-2-yl-pyrrolo[2,1-α]isoquinolin-3-yl)-methanone], for which the midpoint of the response, the EC50, lay at 4.9 nM.

Source of the values: patent US8394789B2, “(Dihydro)pyrrolo[2,1-α]isoquinolines” (MSD Oss B.V., priority 2008, dated 2013).
